In PubChem BioAssay (NCI):
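Grown in 96-well plates, cells were treated for 48 hours with each compound at five concentrations. Insufficient inhibition: endpoint recorded as highest concentration tested. TGI: concentration producing complete growth inhibition.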

Legend:
Experiment in all cases: growth of human tumour cells (NCI), 48 h
SK-MEL-5 melanoma = system: SK-MEL-5 melanoma
HOP-62 NSCLC = system: HOP-62 NSCLC
DU-145 prostate = system: DU-145 prostate
OVCAR-5 ovarian = system: OVCAR-5 ovarian
NCI-H522 lung = system: NCI-H522 lung
MALME-3M melanoma = system: MALME-3M melanoma
ACHN renal = system: ACHN renal
A498 renal = system: A498 renal
MDA-N = system: MDA-N
COLO 205 colon = system: COLO 205 colon
SK-OV-3 ovarian = system: SK-OV-3 ovarian
PC-3 prostate = system: PC-3 prostate
MCF7 breast = system: MCF7 breast
EKVX NSCLC = system: EKVX NSCLC
HCT-116 colon = system: HCT-116 colon
786-0 renal = system: 786-0 renal
A549 NSCLC = system: A549 NSCLC
CCRF-CEM leukemia = system: CCRF-CEM leukemia
OVCAR-4 ovarian = system: OVCAR-4 ovarian
RXF 393 renal = system: RXF 393 renal
UO-31 renal = system: UO-31 renal
SF-295 CNS = system: SF-295 CNS
T-47D breast = system: T-47D breast
NCI/ADR-RES ovarian = system: NCI/ADR-RES ovarian
M14 melanoma = system: M14 melanoma
HS 578T breast = system: HS 578T breast
SN12C renal = system: SN12C renal
CAKI-1 renal = system: CAKI-1 renal
UACC-62 melanoma = system: UACC-62 melanoma
IGROV1 ovarian = system: IGROV1 ovarian
HCT-15 colon = system: HCT-15 colon
SW-620 colon = system: SW-620 colon
SK-MEL-2 melanoma = system: SK-MEL-2 melanoma
MDA-MB-231 breast = system: MDA-MB-231 breast
OVCAR-8 ovarian = system: OVCAR-8 ovarian
RPMI-8226 leukemia = system: RPMI-8226 leukemia
MOLT-4 leukemia = system: MOLT-4 leukemia
NCI-H23 lung = system: NCI-H23 lung
SNB-75 CNS = system: SNB-75 CNS
SF-268 CNS = system: SF-268 CNS
LOX IMVI melanoma = system: LOX IMVI melanoma
SNB-19 CNS = system: SNB-19 CNS
BT-549 breast = system: BT-549 breast
TK-10 renal = system: TK-10 renal
OVCAR-3 ovarian = system: OVCAR-3 ovarian
MDA-MB-435 = system: MDA-MB-435
K-562 leukemia = system: K-562 leukemia
SR leukemia = system: SR leukemia
NCI-H460 lung = system: NCI-H460 lung
HCC-2998 colon = system: HCC-2998 colon
HOP-92 NSCLC = system: HOP-92 NSCLC
SK-MEL-28 melanoma = system: SK-MEL-28 melanoma
SF-539 CNS = system: SF-539 CNS
UACC-257 melanoma = system: UACC-257 melanoma
U251 CNS = system: U251 CNS
KM12 colon = system: KM12 colon
HT29 colon = system: HT29 colon

COC(=O)C1c2cc3c(cc2C(OC2OC(C)C(OC)C(C)(OC)C2OC)CC1(C)O)C(=O)c1c(O)cc2c(c1C3=O)OC1OC2(C)C(O)C([N+](C)(C)[O-])C1O (stereo not given)
TGI (SK-MEL-5 melanoma): 0.352 µM | TGI (HOP-62 NSCLC): > 100 µM | TGI (DU-145 prostate): > 30.1 µM | TGI (OVCAR-5 ovarian): > 43.6 µM | TGI (NCI-H522 lung): 0.809 µM | TGI (MALME-3M melanoma): 1.25 µM | TGI (ACHN renal): > 100 µM | TGI (A498 renal): 3.7 µM | TGI (MDA-N): 1.03 µM | TGI (COLO 205 colon): 0.293 µM | TGI (SK-OV-3 ovarian): > 64.1 µM | TGI (PC-3 prostate): > 40.7 µM | TGI (MCF7 breast): > 100 µM | TGI (EKVX NSCLC): 4.59 µM | TGI (HCT-116 colon): > 100 µM | TGI (786-0 renal): > 40.5 µM | TGI (A549 NSCLC): > 75.8 µM | TGI (CCRF-CEM leukemia): 0.921 µM | TGI (OVCAR-4 ovarian): > 100 µM | TGI (RXF 393 renal): 0.977 µM | TGI (UO-31 renal): 5.7 µM | TGI (SF-295 CNS): > 42 µM | TGI (T-47D breast): 0.847 µM | TGI (NCI/ADR-RES ovarian): > 64.3 µM | TGI (M14 melanoma): 3.64 µM | TGI (HS 578T breast): 25.6 µM | TGI (SN12C renal): 1.8 µM | TGI (CAKI-1 renal): > 28.3 µM | TGI (UACC-62 melanoma): 0.311 µM | TGI (IGROV1 ovarian): 4.22 µM | TGI (HCT-15 colon): > 100 µM | TGI (SW-620 colon): > 23.8 µM | TGI (SK-MEL-2 melanoma): 0.641 µM | TGI (MDA-MB-231 breast): 4.74 µM | TGI (OVCAR-8 ovarian): 4.22 µM | TGI (RPMI-8226 leukemia): > 100 µM | TGI (MOLT-4 leukemia): 4.97 µM | TGI (NCI-H23 lung): 0.718 µM | TGI (SNB-75 CNS): 1.86 µM | TGI (SF-268 CNS): > 21.4 µM | TGI (LOX IMVI melanoma): 3.38 µM | TGI (SNB-19 CNS): > 36.1 µM | TGI (BT-549 breast): 9.14 µM | TGI (TK-10 renal): > 100 µM | TGI (OVCAR-3 ovarian): > 32.3 µM

CCN(CC)CCNc1ccc2nnn3c4ccc(OCCN(CC)CC)cc4c(=O)c1c23
TGI (HOP-62 NSCLC): 72.9 µM | TGI (DU-145 prostate): > 100 µM | TGI (MDA-MB-435): > 100 µM | TGI (OVCAR-5 ovarian): > 100 µM | TGI (K-562 leukemia): > 100 µM | TGI (NCI-H522 lung): > 100 µM | TGI (ACHN renal): > 100 µM | TGI (SR leukemia): 45.4 µM | TGI (A498 renal): > 100 µM | TGI (NCI-H460 lung): > 100 µM | TGI (MDA-N): > 100 µM | TGI (HCC-2998 colon): > 100 µM | TGI (COLO 205 colon): > 100 µM | TGI (SK-OV-3 ovarian): > 100 µM | TGI (MCF7 breast): > 100 µM | TGI (EKVX NSCLC): > 100 µM | TGI (HCT-116 colon): > 100 µM | TGI (786-0 renal): > 100 µM | TGI (A549 NSCLC): > 100 µM | TGI (CCRF-CEM leukemia): 49 µM | TGI (OVCAR-4 ovarian): 41.3 µM | TGI (RXF 393 renal): > 100 µM | TGI (UO-31 renal): > 100 µM | TGI (SF-295 CNS): > 100 µM | TGI (HOP-92 NSCLC): > 100 µM | TGI (T-47D breast): > 100 µM | TGI (SK-MEL-28 melanoma): > 100 µM | TGI (SF-539 CNS): > 100 µM | TGI (NCI/ADR-RES ovarian): > 100 µM | TGI (M14 melanoma): > 100 µM | TGI (HS 578T breast): > 100 µM | TGI (SN12C renal): > 100 µM | TGI (CAKI-1 renal): > 100 µM | TGI (UACC-62 melanoma): > 100 µM | TGI (HCT-15 colon): > 100 µM | TGI (SW-620 colon): > 100 µM | TGI (SK-MEL-2 melanoma): > 100 µM | TGI (MDA-MB-231 breast): > 100 µM | TGI (UACC-257 melanoma): > 100 µM | TGI (OVCAR-8 ovarian): > 100 µM | TGI (RPMI-8226 leukemia): > 100 µM | TGI (U251 CNS): > 100 µM | TGI (MOLT-4 leukemia): 39 µM | TGI (NCI-H23 lung): > 100 µM | TGI (SF-268 CNS): > 100 µM | TGI (KM12 colon): 84.5 µM | TGI (SNB-19 CNS): > 100 µM | TGI (BT-549 breast): > 100 µM | TGI (TK-10 renal): > 100 µM | TGI (HT29 colon): 54.2 µM
